Where two headings read alike, the source gives them in different places. One block for each compound: values may come before it.
Experiments:
HDM2-p53 signaling axis = assay: Whole cell lysate Western blots of MCF7 cells (HDM2, p53, p21); format: cell-based
USP7-F291N = biological target: T1, USP7-F291N (Homo sapiens, UniProt Q93009, F291N); assay: Ub-AMC enzymatic assay, USP7-F291N mutant; format: biochemical; details: 6-hr pre-incubation
T1 construct: made in house

[1] = test system: Ewing Sarcoma, AML, multiple myeloma and rhabdoid cell lines; assay: Cell viability (CellTiter-Glo) in individual cell line panels; format: cell-based
Experimental: Cells were plated in 384-well culture-treated plates and allowed to settle overnight. After drug treament and appropriate incubation time, cell viability was assessed using the CellTiter-Glo Luminescent Cell Viability Assay (Promega). Luminescence was read on a Fluostar Omega Reader (BMG Labtech).

USP7-Q351S = biological target: T2, USP7-Q351S (Homo sapiens, UniProt Q93009, Q351S); assay: Ub-AMC enzymatic assay, USP7-Q351S mutant; format: biochemical; details: 6-hr pre-incubation
T2 construct: made in house
T2 sequence (Q93009 whole entry Q351S): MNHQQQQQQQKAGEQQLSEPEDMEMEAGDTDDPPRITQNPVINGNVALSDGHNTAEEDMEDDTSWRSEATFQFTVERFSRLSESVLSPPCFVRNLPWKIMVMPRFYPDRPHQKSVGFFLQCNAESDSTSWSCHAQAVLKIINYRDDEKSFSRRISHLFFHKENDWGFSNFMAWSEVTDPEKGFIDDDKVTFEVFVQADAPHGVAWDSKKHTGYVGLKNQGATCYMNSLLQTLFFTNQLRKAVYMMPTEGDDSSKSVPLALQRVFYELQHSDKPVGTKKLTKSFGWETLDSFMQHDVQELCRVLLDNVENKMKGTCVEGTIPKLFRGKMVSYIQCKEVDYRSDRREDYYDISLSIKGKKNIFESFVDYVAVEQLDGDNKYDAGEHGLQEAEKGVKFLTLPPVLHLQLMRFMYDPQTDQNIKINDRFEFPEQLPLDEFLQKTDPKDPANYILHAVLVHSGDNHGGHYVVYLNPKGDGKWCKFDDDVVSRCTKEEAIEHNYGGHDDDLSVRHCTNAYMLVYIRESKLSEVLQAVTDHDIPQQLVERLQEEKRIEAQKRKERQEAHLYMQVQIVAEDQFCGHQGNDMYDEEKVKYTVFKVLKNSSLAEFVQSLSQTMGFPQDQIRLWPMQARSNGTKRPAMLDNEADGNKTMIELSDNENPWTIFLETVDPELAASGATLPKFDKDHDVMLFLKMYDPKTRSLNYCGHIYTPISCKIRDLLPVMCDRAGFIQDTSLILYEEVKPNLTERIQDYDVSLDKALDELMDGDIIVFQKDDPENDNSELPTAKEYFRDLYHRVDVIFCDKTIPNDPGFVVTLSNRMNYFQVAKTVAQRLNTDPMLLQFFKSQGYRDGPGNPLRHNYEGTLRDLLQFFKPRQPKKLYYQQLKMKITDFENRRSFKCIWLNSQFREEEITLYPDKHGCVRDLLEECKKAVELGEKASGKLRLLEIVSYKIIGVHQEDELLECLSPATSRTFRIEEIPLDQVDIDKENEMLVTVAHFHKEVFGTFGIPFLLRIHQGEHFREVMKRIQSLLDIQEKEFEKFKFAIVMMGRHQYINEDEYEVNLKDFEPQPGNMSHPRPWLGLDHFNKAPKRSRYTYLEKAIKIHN
Experimental: (§1) Full length USP7 was tested for its activity in Ubiquitin-AMC assay in presence or absence of inhibitors. USP7 (5 nM) was pre-incubated for 6 hours at room temperature with different concentrations of inhibitors or DMSO as a control in 50 mM HEPES pH 7.5, 0.5 mM EDTA, 11 uM ovalbumin, and 5 mM DTT. Ubiquitin-AMC (Boston Biochem) was then added to a final concentration of 500 nM. The initial rate of the reaction was measured by collecting fluorescence data at one minute intervals over 30-minute period using a Clariostar fluorescence plate reader at excitation and emission wavelength of 345 and 445 nm respectively. The calculated initial rate values were plotted against inhibitor concentrations to determine IC50s. All the experimental data were plotted using Prism GraphPad. All assays for each compound were performed at least twice for each compound.

p53 target genes = assay: Quantitative real-time PCR of p53 target genes in MCF7 cells; format: cell-based; details: 1 μM, 24 hours
Experimental: After cell treatment under the indicated conditions, total cellular RNA was purified using a Qiagen RNEasy kit. 1 μg of RNA was then converted to cDNA using SuperScript III First-Strand Synthesis (Invitrogen). cDNA from each sample was then combined with the indicated TaqMan probe and 2x MasterMix in a 96-well Fast RT-PCR plate (Invitrogen). qPCR was performed on an Invitrogen 7500 Fast qPCR instrument and gene expression was calculated using the 2^-∆∆Ct method on Graphpad Prism.

USP7 = USP7 (Homo sapiens, UniProt Q93009); assay: XL177A-DTB chemoproteomic profiling with XL177A competition, USP7; format: binding; design: endogenous in cells; host or cells: HEK 293AD lysate
Chain of USP7 (Q93009 whole entry): as the sequence (Q93009 whole entry Q351S) above, with S351Q counted along it
Experimental: HEK 293AD cells were lysed as described above, and the lysate was cleared by centrifugation. […] SDS was added to a final concentration of 1.2% (27.2 μL of a 10% stock), and denatured by heating to 80 °C for 5 minutes. After cooling to RT, 1125 μL 1X PBS was added to dilute the final SDS concentration to 0.2%. 50 μL streptavidin agarose slurry was added to each sample, followed by incubation at RT for 3 hours. After streptavidin enrichment, samples were washed vigorously (2×0.2% SDS, 3x PBS, 3x ddH2O). After the final wash, all supernatant was removed using a flat-bottom tip, and the resin was flash frozen and stored at −80 °C until workup for TMT labeling.
To remove rapigest, recovered supernatants were acidified with 10% TFA, incubated at 37 °C for 45 minutes, and centrifuged at 14,000 rpm for 15 minutes at 4 °C. Peptides were then desalted by C18, and dried by vacuum centrifugation. Dried peptides were reconstituted in 50 mM pH8.0 TEAB and labeled with TMT reagent at RT for 1 hour. TMT reactions were pooled and treated with hydroxylamine according to the manufacturer’s instructions. Peptide mixtures were then dried, reconstituted in 50 mM ammonium bicarbonate and desalted by SP3[53]. Eluted peptides were then analyzed by nanoflow LC-MS/MS as described[64] with a NanoAcquity UPLC system (Waters, Milford, MA) interfaced to a QExactive HF mass spectrometer (Thermofisher Scientific, San Jose, CA). TMT labeled peptides were injected onto a precolumn (4 cm POROS 10R2, Applied Biosystems, Framingham, MA), resolved on an analytical column (30 µm I.D. × 50 cm packed with 5 µm Monitor C18) and introduced to the mass spectrometer by ESI (spray voltage = 3.5 kV, flow rate ~30 nL/min). The mass spectrometer was operated in data dependent mode such that the 15 most abundant ions in each MS scan (m/z 300–2000, 120 K resolution, target = 3E6, lock mass for 445.120025 enabled) were subjected to MS/MS (m/z 100–2000, 30 K resolution, target = 1E5, max fill time = 100 ms). Dynamic exclusion was selected with a repeat count of 1 and an exclusion time of 30 seconds. MS/MS data was extracted to.mgf using mulitplierz scripts[54],[55] and searched against a forward-reverse human NCBI refseq database using Mascot version 2.6. Search parameters specified fixed carbamidomethylation of cysteine, fixed N-terminal and lysine TMT labelling, and variable oxidation (methionine). Additional multiplierz scripts were used to filter results to 1% FDR and derive protein-level aggregate reporter ion intensities using peptides mapping uniquely into the genome.

full-length USP7 = biological target: T3, full-length USP7 (Homo sapiens, UniProt Q93009); assay: Ub-AMC enzymatic assay, full-length USP7, 6 h pre-incubation; format: biochemical
T3 construct: The constructs encoding USP7 full length (amino acids 1–1102) and catalytic domain (208–560); inferred from Ni-NTA purification; made in house; host or cells: E. coli BL21 (DE3)
T3 sequence (Q93009 whole entry, the tested form may be a part): as the sequence (Q93009 whole entry Q351S) above, with S351Q counted along it
Experimental: as §1

[2] = USP7 reporter ion intensity, XL177A-DTB pulldown, HEK293AD lysate pre-treated 100nM XL177A
[3] = USP7 reporter ion intensity, XL177A-DTB pulldown, HEK293AD lysate pre-treated 1uM XL177A
[4] = USP7 reporter ion intensity, XL177A-DTB pulldown, HEK293AD lysate pre-treated 10uM XL177A
[5] = USP7 reporter ion intensity, average of Run 1 and Run 2, 100nM XL177A
[6] = USP7 reporter ion intensity, average of Run 1 and Run 2, 1uM XL177A
[7] = USP7 reporter ion intensity, average of Run 1 and Run 2, 10uM XL177A

T1 sequence (Q93009 whole entry F291N): as the sequence (Q93009 whole entry Q351S) above, with F291N, S351Q counted along it

IC50 (USP7-F291N): 0.629 µM | IC50 (USP7-Q351S): 0.189 µM | inhibition of XL177A-DTB labeling (USP7; HEK293 lysate, XL177A 1 or 10 μM, 5 hours, only USP7 of 566 proteins): > 3 fold | Run 1 100nM 1 (USP7; [2]): 31732106 | Run 1 100nM 2 (USP7; [2]): 30184262 | Run 1 100nM 3 (USP7; [2]): 32232481 | Run 2 100nM 1 (USP7; [2]): 31803721 | Run 2 100nM 2 (USP7; [2]): 30185364 | Run 2 100nM 3 (USP7; [2]): 32073312 | Run 1 1uM 1 (USP7; [3]): 8663971 | Run 1 1uM 2 (USP7; [3]): 7593596 | Run 1 1uM 3 (USP7; [3]): 8340895 | Run 2 1uM 1 (USP7; [3]): 8601953 | Run 2 1uM 2 (USP7; [3]): 7625246 | Run 2 1uM 3 (USP7; [3]): 8414168 | Run 1 10uM 1 (USP7; [4]): 7727617 | Run 1 10uM 2 (USP7; [4]): 7625585 | Run 2 10uM 1 (USP7; [4]): 7739438 | Run 2 10uM 2 (USP7; [4]): 7761626 | AVE 100nM 1 (USP7; [5]): 31767914 | AVE 100nM 2 (USP7; [5]): 30184813 | AVE 100nM 3 (USP7; [5]): 32152896 | AVE 1uM 1 (USP7; [6]): 8632962 | AVE 1uM 2 (USP7; [6]): 7609421 | AVE 1uM 3 (USP7; [6]): 8377532 | AVE 10uM 1 (USP7; [7]): 7733528 | AVE 10uM 2 (USP7; [7]): 7693606 | IC50 (full-length USP7; read-out: potency as irreversible inhibitor of USP7): 0.00034 µM
SMILES: CN1CCN(CCC(=O)Nc2ccc3c(=O)n(CC4(O)CCN(C(=O)[C@@H](CCCNC(=O)c5ccc6c(Cl)c7c(nc6c5)CCCC7)Cc5ccccc5)CC4)cnc3c2)CC1 [XL177A]
p53 and p21 protein levels (HDM2-p53 signaling axis): increases in p53 and downstream p21 protein levels | time to degradation of HDM2 (HDM2-p53 signaling axis): ≤ 2 h | TP53-WT cell lines sensitive [1]: 9 out of 10 | TP53-mutant cell lines sensitive [1]: 1 out of 17 | transcription of p53 target genes (CDKN1A, GADD45A, BAX, DDB2) (p53 target genes): stimulating transcription of p53 target genes

IC50 (full-length USP7; Ub-AMC, 6-hour pre-treatment, read-out: IC50): 0.34 µM
SMILES: CN1CCN(CCC(=O)Nc2ccc3c(=O)n(CC4(O)CCN(C(=O)[C@H](CCCNC(=O)c5ccc6c(Cl)c7c(nc6c5)CCCC7)Cc5ccccc5)CC4)cnc3c2)CC1 [XL177B]
effects on HDM2-p53 signaling and cell cycle (HDM2-p53 signaling axis; negative control): did not exert any of the same effects except at 10 μM | less potent than XL177A in the cell lines tested [1]: ~ 100 fold

Reference: PMC7093416, “Selective USP7 inhibition elicits cancer cell killing through a p53-dependent mechanism” (Scientific Reports, 2020)
